The record followed here is ChEMBL document CHEMBL5335864 (ACS Med Chem Lett, 2024).

The test system of this assay is Plasmodium falciparum. Briefly: Antiplasmodial activity against Plasmodium falciparum NF54 infected in human erythrocytes measured after 48 hrs by [3H]hypoxanthine incorporation assay. The class given is functional, organism-based. Conditions: NF54, Erythrocyte.

A word on the IC50: it is the point on the concentration scale where inhibition reaches its midpoint. Low readings indicate higher potency, high ones lower potency. `FC1CN(CCc2ccc(-c3noc(C(F)(F)F)n3)cc2)CCC1Nc1nc2ccccc2[nH]1` (stereo unspecified) had an IC50 of 219 nM.
